For orientation: IC50 means the concentration that gives 50% inhibition.

The values below come from US11312719B2, “9-substituted amino triazolo quinazoline derivatives as adenosine receptor antagonists, pharmaceutical compositions and their use” (Merck Sharp & Dohme Corp., priority 2018, dated 2022).

SMILES strings stand for the structures.

Experiment [1] has as its target human A2B receptors (Homo sapiens (Human), UniProt P29275). Briefly: A2B antagonism in cAMP cell-based assay (LANCE cAMP, HEK293). To be noted: HEK293 cells expressing human A2B receptor. In short, it runs like this: (§1)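 HEK293 cells expressing human A2A or A2B, in HBSS/5 mM HEPES/200 nM rolipram, were preincubated with compound (0.5–10,000 nM, 0.25% DMSO) 30 min at 37° C. Adenosine was then added from 300 nM (A2A) or 600 nM (A2B) solution for 30 min.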

Experiment [2] deals with human A2A receptors (Homo sapiens (Human), UniProt P29274). In words: A2A antagonism in cAMP cell-based assay (LANCE cAMP, HEK293). The following applies: HEK293 cells expressing human A2A receptor. In short, it runs like this:
as §1

human A2B receptors, sequence (P29275 whole entry): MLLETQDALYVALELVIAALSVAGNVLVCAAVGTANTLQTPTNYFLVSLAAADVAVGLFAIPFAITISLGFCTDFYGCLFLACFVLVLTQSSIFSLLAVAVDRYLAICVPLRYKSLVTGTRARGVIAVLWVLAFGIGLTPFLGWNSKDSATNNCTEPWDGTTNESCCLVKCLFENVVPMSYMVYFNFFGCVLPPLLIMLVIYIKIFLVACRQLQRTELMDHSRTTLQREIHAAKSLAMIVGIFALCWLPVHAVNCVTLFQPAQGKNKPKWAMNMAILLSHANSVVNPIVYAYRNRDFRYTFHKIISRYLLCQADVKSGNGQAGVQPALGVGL
human A2A receptors, sequence (P29274 whole entry): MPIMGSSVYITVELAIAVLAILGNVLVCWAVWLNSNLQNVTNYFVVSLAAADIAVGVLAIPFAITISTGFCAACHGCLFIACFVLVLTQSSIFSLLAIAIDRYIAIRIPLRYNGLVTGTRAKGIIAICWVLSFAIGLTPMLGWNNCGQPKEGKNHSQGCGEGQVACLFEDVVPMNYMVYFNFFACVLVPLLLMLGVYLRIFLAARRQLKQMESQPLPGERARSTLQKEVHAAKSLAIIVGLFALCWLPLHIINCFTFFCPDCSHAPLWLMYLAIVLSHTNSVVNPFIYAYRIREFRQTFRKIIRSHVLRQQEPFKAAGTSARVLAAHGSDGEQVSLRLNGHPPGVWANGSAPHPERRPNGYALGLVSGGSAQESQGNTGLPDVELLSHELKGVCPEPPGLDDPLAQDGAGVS

On to `CC1CCC(c2nc3c4cc(F)cc(F)c4nc(N)n3n2)CN1c1cnn(CC(C)(O)CO)c1` (single isomer, unassigned) [Example 258, (R or S)-2-(4-((2R,5S or 2S,5R)-5-(5-amino-7,9-difluoro-[1,2,4]triazolo[1,5-c]quinazolin-2-yl)-2-methylpiperidin-1-yl)-1H-pyrazol-1-yl)-2-methylpropane-1,2-diol], for which the IC50 in experiment [1] amounted to 0.0081 µM; in experiment [2], 0.0023 µM.

As to `Cc1c(N2CC(C)CC(c3nc4c5cc(F)cc(F)c5nc(N)n4n3)C2)cnn1C(C)C(C)O` (single isomer, unassigned) [Example 217, (2R,3R or 2S,3S)-3-(4-((3R,5S or 3S,5R)-3-(5-amino-7,9-difluoro-[1,2,4]triazolo[1,5-c]quinazolin-2-yl)-5-methylpiperidin-1-yl)-5-methyl-1H-pyrazol-1-yl)butan-2-ol], the 50% inhibitory concentration (IC50) is 0.161 µM in experiment [1] and 0.0011 µM in experiment [2].

With `Cc1nn(CC(C)(C)O)cc1N1CC(C)CC(c2nc3c4cc(F)cc(F)c4nc(N)n3n2)C1` (single isomer, unassigned) [Example 168, 1-(4-((3S,5R or 3R,5S)-3-(5-amino-7,9-difluoro-[1,2,4]triazolo[1,5-c]quinazolin-2-yl)-5-methylpiperidin-1-yl)-3-methyl-1H-pyrazol-1-yl)-2-methylpropan-2-ol], the IC50 came out at 4.72 µM in experiment [1] and 0.0239 µM in experiment [2].

Turning to `COc1cc(F)cc2c1nc(N)n1nc([C@@H]3CCCN(c4cnn(C(C)(C)C(C)O)c4)C3)nc21` (single isomer, unassigned) [Example 245, (S or R)-3-(4-((R)-3-(5-amino-9-fluoro-7 methoxy-[1,2,4]triazolo[1,5-c]quinazolin-2-yl)piperidin-1-yl)-1H-pyrazol-1-yl)-3-methylbutan-2-ol], the IC50 was determined as 0.0258 µM in experiment [1] and 0.002 µM in experiment [2].

`COc1cc2nc(N)n3nc(C4CCC(C)N(c5cnn(C(C)(C)C(C)O)c5)C4)nc3c2cc1F` (single isomer, unassigned) [Example 267, (S or R)-3-(4-((2R,5S or 2S,5R)-5-(5-amino-9-fluoro-8-methoxy-[1,2,4]triazolo[1,5-c]quinazolin-2-yl)-2-methylpiperidin-1-yl)-1H-pyrazol-1-yl)-3-methylbutan-2-ol]: the IC50 in experiment [1] came to 1.21 µM; in experiment [2], 0.175 µM.

On to `Cc1nn(CC(C)(C)O)cc1N1CCC[C@@H](c2nc3c4cc(F)c(OC(F)F)cc4nc(N)n3n2)C1` [Example 154, (R)-1-(4-(3-(5-amino-8-(difluoromethoxy)-9-fluoro-[1,2,4]triazolo[l,5-c]quinazolin-2-yl)piperidin-l-yl)-3-methyl-1H-pyrazol-1-yl)-2-methylpropan-2-ol], for which the figures for the 50% inhibitory concentration (IC50) in experiment [1] and in experiment [2] were 0.974 µM and 0.0012 µM, respectively.

With `COc1cc(F)cc2c1nc(N)n1nc(C3CC(C)CN(c4cnn(C(C)C(C)O)c4C)C3)nc21` (single isomer, unassigned) [Example 222, (2R,3R or 2S,3S)-3-(4-((3S,5R or 3R,5S)-3-(5-amino-9-fluoro-7-methoxy-[1,2,4]triazolo[1,5-c]quinazolin-2-yl)-5-methylpiperidin-1-yl)-5-methyl-1H-pyrazol-1-yl)butan-2-ol], the IC50 turned out to be 3.28 µM in experiment [1] and 0.0346 µM in experiment [2].

As for `COc1cc2nc(N)n3nc(C4CCC(C)N(c5cnn(CC(C)(O)CO)c5)C4)nc3c2cc1F` (single isomer, unassigned) [Example 253, (S or R)-2-(4-((2S,5R or 2R,5S)-5-(5-amino-9-fluoro-8-methoxy-[1,2,4]triazolo[1,5-c]quinazolin-2-yl)-2-methylpiperidin-1-yl)-1H-pyrazol-1-yl)-2-methylpropane-1,2-diol], the IC50 in experiment [1] was greater than 10 µM; in experiment [2], 0.123 µM.

Consider `COc1cc2nc(N)n3nc(C4CCC(C)N(c5cnn(CC6(O)CC6)c5)C4)nc3c2cc1F` (single isomer, unassigned) [Example 273, 1-((4-((2R,5S or 2S,5R)-5-(5-amino-9-fluoro-8-methoxy-[1,2,4]triazolo[1,5-c]quinazolin-2-yl)-2-methylpiperidin-1-yl)-1H-pyrazol-1-yl)methyl)cyclopropan-1-ol], for which the values for the IC50 in experiment [1] and in experiment [2] were 0.0267 µM and 0.0012 µM, respectively.

Take `CC1CCC(c2nc3c4cc(F)cc(F)c4nc(N)n3n2)CN1c1cnn(CC(C)(O)CO)c1` (single isomer, unassigned) [Example 257, (S or R)-2-(4-((2S,5R or 2R,5S)-5-(5-amino-7,9-difluoro-[1,2,4]triazolo[1,5-c]quinazolin-2-yl)-2-methylpiperidin-1-yl)-1H-pyrazol-1-yl)-2-methylpropane-1,2-diol]: the “A2B cAMP % Inh. @10000 nM” value in experiment [1] (at 10000 nM) came to 25% Inh. The same molecule registered an IC50 in experiment [2] of 0.541 µM.

With `COc1cc(F)cc2c1nc(N)n1nc(C3CCC(C)N(c4cnn(C(C)(C)C(C)O)c4)C3)nc21` (single isomer, unassigned) [Example 270, (R or S)-3-(4-((2R,5S or 2S,5R)-5-(5-amino-9-fluoro-7-methoxy-[1,2,4]triazolo[1,5-c]quinazolin-2-yl)-2-methylpiperidin-1-yl)-1H-pyrazol-1-yl)-3-methylbutan-2-ol], the values for the IC50 in experiment [1] and in experiment [2] were 0.0303 µM and 0.0052 µM, respectively.

Consider `CCC(C)(O)Cn1cc(N2CCC[C@@H](c3nc4c5cc(F)c(OC)cc5nc(N)n4n3)C2)cn1` (single isomer, unassigned) [Example 183, (R or S)-1-(4-((R)-3-(5-amino-9-fluoro-8-methoxy-[1,2,4]triazolo[1,5-c]quinazolin-2-yl)piperidin-1-yl)-1H-pyrazol-1-yl)-2-methylbutan-2-ol], for which the half-maximal inhibitory concentration (IC50) in experiment [1] came out at 0.0906 µM; in experiment [2], 0.002 µM.

Consider `COc1cc2nc(N)n3nc(C4CC(C)CN(c5cn(C(C)(C)CO)nc5C)C4)nc3c2cc1F` (single isomer, unassigned) [Example 169, 2-(4-((3S,5S or 3S,5R)-3-(5-amino-9-fluoro-8-methoxy-[1,2,4]triazolo[1,5-c]quinazolin-2-yl)-5-methylpiperidin-1-yl)-3-methyl-1H-pyrazol-1-yl)-2-methylpropan-1-ol], for which the results for the IC50 in experiment [1] and in experiment [2] were 3.38 µM and 0.0965 µM, respectively.

As for `COc1cc(F)cc2c1nc(N)n1nc([C@@H]3CCCN(c4cnn(C(C)C(C)O)c4)C3)nc21` (single isomer, unassigned) [Example 186, (2R,3R or 2S,3S)-3-(4-((R)-3-(5-amino-9-fluoro-7-methoxy-[1,2,4]triazolo[1,5-c]quinazolin-2-yl)piperidin-1-yl)-1H-pyrazol-1-yl)butan-2-ol], the IC50 was 0.0258 µM in experiment [1] and 0.001 µM in experiment [2].
